Reference: US20250332442A1, “ORAL HYGIENE DEVICE AND SYSETM, AND USE METHOD” (CHANGSHA […] IN[…]., LTD., priority 2023, published 2025)

Columns and labels:
Format in all cases: cell-based
Porphyromonas gingivalis [1] = assay: photodynamic sterilization experiment with constant-current source device (Embodiment 12); conditions: red light 630 nm and blue light 430 nm, irradiation 30 seconds, device of Embodiment 12
Excerpt: (§1) The device of Embodiment 12 and photosensitizer toluidine blue O are used in cooperation to carry out the photodynamic sterilization experiment on Porphyromonas gingivalis and Enterococcus faecalis. A red light beam with a wavelength of 630 nm and a blue light beam with a wavelength of 430 nm are used to irradiate for 30 seconds.

Enterococcus faecalis = assay: as above; conditions: red light 630 nm and blue light 430 nm, irradiation 30 seconds, device of Embodiment 12
Excerpt: as §1

[2] = tested on: Actinobacillus actinomycetemcomitans; assay: photodynamic sterilization with periodontal light guide needle device (Embodiment 4); conditions: red light beam 630 nm, irradiation 30 s, tip of periodontal light guide needle
Excerpt: The device of Embodiment 4 and photosensitizer toluidine blue O are used in cooperation to carry out photodynamic sterilization of Actinobacillus actinomycetemcomitans, and a red light beam with a wavelength of 630 nm is selected to irradiate for 30 s.

[3] = tested on: Enterococcus faecalis ATCC2921; assay: photodynamic sterilization experiment with root canal light guide needle device; conditions: red-light beam 630 nm, irradiation 30 s, tip of root canal light guide needle
Procedure: The photodynamic sterilization experiment on Enterococcus faecalis ATCC2921 is carried out using the device provided by the present disclosure and the photosensitizer toluidine blue O, and a red-light beam with a wavelength of 630 nm is selected to irradiate for 30 s.

Porphyromonas gingivalis [4] = assay: photodynamic sterilization with pure flat light guide needle device (Embodiment 8); conditions: red light beam 630 nm, irradiation 30 s, tail end of pure flat light guide needle
Excerpt: The device of Embodiment 8 and photosensitizer toluidine blue O are used in cooperation to carry out photodynamic sterilization of Porphyromonas gingivalis, and a red light beam with a wavelength of 630 nm is selected to irradiate for 30 s.

Measured: sterilization efficiency

Cc1cc2nc3ccc(=[N+](C)C)cc-3sc2cc1N [toluidine blue O]
99%: all assays above
